Measured values: patent publication US12258328B2, “6-membered heteroaryl-containing aminopyridine compounds as EGFR inhibitors” (YUHAN CORPORATION, priority 2021, dated 2025)
Read-outs that look alike come from different tables or passages of the source.

Assays:
EGFR del19/T790M/C797S = EGFR del19/T790M/C797S (Homo sapiens, UniProt P00533, C797S/DEL746-750/T790M); assay: Biochemical EGFR kinase assay (Lance Ultra TR-FRET), triple mutant del19/T790M/C797S
Experimental: (§1) Biochemical EGFR kinase assays were conducted using Lance Ultra time-resolved fluorescence resonance energy transfer (TR-FRET) technology from Perkin-Elmer. Compounds of the invention were initially diluted to 20 mM in 100% DMSO for storage and made into kinase buffer solution to create a compound concentration ranging from 0.003 μM and 10 μM.
(§2) Each kinase reactions were incubated at room temperature for 1 hour and then stopped by the addition of 4 μL of stop solution (10 mM EDTA). The specific Europium-labeled-anti-phosphopeptide antibody (PerkinElmer, AD0069) diluted in LANCE detection buffer was then added to a final concentration of 2 nM. After 60 minutes incubation at room temperature the LANCE signal was measured on an EnVision Multilabel Reader (Perkin-Elmer). Excitation wavelength was set at 320 nm and emission monitored at 615 nm (donor) and 665 nm (acceptor). The IC50 values were determined using GraphPad prism software (GraphPad Software, Inc., San Diego, CA, USA).

EGFR L858R/T790M/C797S = EGFR L858R/T790M/C797S (Homo sapiens, UniProt P00533, C797S/L858R/T790M); assay: Biochemical EGFR kinase assay (Lance Ultra TR-FRET), triple mutant L858R/T790M/C797S
Experimental: as §1, §2

EGFR del19/C797S = EGFR del19/C797S (Homo sapiens, UniProt P00533, C797S/DEL746-750); assay: Biochemical EGFR kinase assay (Lance Ultra TR-FRET), double mutant del19/C797S
Experimental: as §1, §2

EGFR L858R/C797S = EGFR L858R/C797S (Homo sapiens, UniProt P00533, C797S/L858R); assay: Biochemical EGFR kinase assay (Lance Ultra TR-FRET), double mutant L858R/C797S
Experimental: as §1, §2

EGFR wildtype = EGFR wildtype (Homo sapiens, UniProt P00533); assay: Biochemical EGFR kinase assay (Lance Ultra TR-FRET), wildtype
Experimental: as §1, §2

[1] = IC50 del19/T790M/C797S (nM) 100 μM ATP, 100 μM ATP
[2] = IC50 L858R/T790M/C797S (nM) 100 μM ATP, 100 μM ATP
[3] = Km ATP, read-out: IC50 L858R/T790M/C797S (nM) Km ATP
[4] = IC50 del19/C797S (nM) 100 μM ATP, 100 μM ATP
[5] = Km ATP, read-out: IC50 del19/C797S (nM) Km ATP
[6] = IC50 L858R/C797S (nM) 100 μM ATP, 100 μM ATP
[7] = IC50 WT (nM) 100 μM ATP, 100 μM ATP
[8] = Km ATP, read-out: IC50 WT (nM) Km ATP
[9] = Km ATP, read-out: IC50 del19/T790M/C797S (nM) Km ATP
[10] = Km ATP, read-out: IC50 L858R/C797S (nM) Km ATP

Sequence of EGFR del19/T790M/C797S (P00533 with tags, fused parts or gaps DEL746-750/T790M/C797S): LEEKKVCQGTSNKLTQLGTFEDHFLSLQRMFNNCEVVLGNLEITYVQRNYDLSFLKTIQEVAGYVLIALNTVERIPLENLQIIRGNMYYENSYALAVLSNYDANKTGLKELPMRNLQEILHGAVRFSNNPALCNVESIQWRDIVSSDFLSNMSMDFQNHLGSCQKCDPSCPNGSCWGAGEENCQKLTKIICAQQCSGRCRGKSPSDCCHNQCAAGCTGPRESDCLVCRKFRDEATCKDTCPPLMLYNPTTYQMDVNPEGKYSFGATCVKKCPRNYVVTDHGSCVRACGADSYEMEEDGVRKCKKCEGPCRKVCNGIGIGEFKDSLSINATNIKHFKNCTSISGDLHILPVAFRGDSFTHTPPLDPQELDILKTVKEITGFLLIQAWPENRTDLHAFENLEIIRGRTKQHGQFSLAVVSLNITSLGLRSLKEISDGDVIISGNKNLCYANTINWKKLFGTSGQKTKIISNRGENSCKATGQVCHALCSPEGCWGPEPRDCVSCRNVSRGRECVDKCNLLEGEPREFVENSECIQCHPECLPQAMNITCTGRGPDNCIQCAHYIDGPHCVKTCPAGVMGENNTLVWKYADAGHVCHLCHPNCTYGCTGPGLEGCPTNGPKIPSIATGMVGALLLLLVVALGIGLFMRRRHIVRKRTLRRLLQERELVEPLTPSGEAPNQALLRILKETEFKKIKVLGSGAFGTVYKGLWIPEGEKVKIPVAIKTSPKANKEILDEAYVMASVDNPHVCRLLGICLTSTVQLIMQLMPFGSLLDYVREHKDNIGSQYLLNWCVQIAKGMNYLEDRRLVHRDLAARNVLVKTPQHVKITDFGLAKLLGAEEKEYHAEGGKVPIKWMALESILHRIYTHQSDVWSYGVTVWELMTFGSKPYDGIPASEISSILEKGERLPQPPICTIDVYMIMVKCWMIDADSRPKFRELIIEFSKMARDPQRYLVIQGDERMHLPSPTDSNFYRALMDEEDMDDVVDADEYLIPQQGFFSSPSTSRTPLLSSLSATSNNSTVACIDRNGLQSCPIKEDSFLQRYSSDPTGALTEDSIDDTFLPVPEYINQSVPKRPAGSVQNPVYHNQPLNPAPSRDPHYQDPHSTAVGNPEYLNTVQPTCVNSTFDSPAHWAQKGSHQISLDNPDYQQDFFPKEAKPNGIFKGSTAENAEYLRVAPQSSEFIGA
Sequence of EGFR L858R/C797S (P00533 25-1210 C797S/L858R): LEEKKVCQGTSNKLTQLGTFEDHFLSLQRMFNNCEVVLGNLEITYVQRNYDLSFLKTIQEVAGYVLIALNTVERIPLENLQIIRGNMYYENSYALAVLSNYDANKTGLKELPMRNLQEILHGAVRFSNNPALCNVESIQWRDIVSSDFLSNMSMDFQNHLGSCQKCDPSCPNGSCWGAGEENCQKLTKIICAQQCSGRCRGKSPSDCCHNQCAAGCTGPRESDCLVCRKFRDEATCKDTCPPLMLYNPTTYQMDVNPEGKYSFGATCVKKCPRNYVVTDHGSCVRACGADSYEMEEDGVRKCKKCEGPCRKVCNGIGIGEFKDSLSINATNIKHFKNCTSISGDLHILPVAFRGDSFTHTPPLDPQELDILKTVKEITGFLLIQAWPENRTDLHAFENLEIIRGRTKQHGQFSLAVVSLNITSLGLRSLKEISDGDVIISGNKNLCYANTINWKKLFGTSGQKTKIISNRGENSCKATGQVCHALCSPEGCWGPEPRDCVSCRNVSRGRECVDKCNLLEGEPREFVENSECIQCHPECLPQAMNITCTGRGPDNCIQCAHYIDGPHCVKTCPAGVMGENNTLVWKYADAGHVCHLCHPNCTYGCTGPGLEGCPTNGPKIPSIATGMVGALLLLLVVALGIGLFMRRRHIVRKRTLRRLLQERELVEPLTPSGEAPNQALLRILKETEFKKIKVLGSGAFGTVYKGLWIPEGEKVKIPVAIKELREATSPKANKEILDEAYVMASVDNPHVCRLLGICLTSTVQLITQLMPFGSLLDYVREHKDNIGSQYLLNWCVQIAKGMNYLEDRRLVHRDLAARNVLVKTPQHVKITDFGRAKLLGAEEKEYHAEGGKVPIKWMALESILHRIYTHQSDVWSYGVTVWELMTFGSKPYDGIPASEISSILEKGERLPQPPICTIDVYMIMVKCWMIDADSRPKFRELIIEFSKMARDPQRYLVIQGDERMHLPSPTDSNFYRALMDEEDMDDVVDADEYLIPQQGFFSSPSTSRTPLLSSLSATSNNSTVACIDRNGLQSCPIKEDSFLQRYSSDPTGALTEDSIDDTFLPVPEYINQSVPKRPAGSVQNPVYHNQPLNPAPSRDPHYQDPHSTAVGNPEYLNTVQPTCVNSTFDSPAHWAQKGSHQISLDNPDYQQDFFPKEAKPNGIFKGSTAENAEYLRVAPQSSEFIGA
Sequence of EGFR del19/C797S (P00533 with tags, fused parts or gaps DEL746-750/C797S): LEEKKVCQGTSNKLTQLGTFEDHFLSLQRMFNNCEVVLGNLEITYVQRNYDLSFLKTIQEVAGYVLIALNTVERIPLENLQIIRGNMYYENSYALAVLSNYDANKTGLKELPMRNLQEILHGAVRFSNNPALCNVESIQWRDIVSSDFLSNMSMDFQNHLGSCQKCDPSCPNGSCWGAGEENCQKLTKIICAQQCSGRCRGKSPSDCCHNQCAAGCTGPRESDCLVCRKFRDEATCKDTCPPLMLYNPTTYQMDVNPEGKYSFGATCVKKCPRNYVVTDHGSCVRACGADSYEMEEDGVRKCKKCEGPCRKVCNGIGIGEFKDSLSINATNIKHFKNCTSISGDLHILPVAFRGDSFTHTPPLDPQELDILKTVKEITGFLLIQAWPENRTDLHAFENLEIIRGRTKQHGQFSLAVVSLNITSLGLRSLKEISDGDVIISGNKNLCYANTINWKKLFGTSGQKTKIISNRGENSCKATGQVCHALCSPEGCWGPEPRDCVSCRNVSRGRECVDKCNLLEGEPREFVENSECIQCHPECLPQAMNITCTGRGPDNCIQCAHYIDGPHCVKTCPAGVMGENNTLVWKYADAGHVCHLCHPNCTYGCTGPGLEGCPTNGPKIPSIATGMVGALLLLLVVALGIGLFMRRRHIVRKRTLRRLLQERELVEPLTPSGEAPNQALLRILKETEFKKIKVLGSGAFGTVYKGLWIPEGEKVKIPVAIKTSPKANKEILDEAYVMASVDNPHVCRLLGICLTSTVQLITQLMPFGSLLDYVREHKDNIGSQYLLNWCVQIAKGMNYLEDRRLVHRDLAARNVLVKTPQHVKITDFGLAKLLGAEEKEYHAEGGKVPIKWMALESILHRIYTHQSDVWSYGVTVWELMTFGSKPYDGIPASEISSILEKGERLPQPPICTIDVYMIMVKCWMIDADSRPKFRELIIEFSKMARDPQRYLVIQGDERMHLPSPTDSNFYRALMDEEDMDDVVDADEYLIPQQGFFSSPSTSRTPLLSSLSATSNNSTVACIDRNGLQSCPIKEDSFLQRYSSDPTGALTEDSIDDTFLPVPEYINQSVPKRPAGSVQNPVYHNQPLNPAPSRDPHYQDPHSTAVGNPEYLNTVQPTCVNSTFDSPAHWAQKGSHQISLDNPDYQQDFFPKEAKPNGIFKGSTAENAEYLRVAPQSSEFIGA
Sequence of EGFR L858R/T790M/C797S (P00533 25-1210 T790M/C797S/L858R): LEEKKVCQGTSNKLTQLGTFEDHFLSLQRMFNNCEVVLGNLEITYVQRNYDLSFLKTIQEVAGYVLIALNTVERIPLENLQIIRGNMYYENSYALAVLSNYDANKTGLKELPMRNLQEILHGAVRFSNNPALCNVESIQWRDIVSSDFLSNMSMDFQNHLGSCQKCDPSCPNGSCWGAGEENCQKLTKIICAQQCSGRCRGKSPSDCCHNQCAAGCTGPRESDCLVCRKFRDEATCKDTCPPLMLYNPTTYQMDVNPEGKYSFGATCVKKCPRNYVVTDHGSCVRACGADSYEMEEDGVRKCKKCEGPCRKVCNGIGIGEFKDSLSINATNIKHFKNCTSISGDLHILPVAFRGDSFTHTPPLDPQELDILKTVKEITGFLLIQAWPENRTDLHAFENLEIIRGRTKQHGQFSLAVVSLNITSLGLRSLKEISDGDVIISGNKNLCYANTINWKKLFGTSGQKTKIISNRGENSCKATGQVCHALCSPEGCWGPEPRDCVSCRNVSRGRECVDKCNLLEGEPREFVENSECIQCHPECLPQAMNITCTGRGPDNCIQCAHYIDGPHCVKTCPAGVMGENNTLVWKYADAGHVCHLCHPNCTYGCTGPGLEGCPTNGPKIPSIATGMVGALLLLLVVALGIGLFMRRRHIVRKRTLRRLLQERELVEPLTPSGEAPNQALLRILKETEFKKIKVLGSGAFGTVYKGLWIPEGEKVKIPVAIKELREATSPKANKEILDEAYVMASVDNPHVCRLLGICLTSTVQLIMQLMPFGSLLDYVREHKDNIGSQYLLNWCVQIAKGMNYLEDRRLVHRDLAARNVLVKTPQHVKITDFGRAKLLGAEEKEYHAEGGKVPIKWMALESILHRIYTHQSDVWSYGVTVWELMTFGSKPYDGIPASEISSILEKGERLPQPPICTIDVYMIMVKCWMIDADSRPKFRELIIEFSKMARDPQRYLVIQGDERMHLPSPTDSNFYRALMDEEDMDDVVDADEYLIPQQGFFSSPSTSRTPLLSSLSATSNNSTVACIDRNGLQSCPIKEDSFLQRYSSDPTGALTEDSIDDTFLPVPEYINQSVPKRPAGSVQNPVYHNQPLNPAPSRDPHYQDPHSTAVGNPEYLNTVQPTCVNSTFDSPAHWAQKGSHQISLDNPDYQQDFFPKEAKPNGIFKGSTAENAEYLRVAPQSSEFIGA

| SMILES | IC50 (EGFR del19/T790M/C797S; [1]) | IC50 (EGFR L858R/T790M/C797S; [2]) | IC50 (EGFR L858R/T790M/C797S; [3]) | IC50 (EGFR del19/C797S; [4]) | IC50 (EGFR del19/C797S; [5]) | IC50 (EGFR L858R/C797S; [6]) | IC50 (EGFR wildtype; [7]) | IC50 (EGFR wildtype; [8]) | IC50 (EGFR del19/T790M/C797S; [9]) | IC50 (EGFR L858R/C797S; [10]) |
| --- | --- | --- | --- | --- | --- | --- | --- | --- | --- | --- |
| O=S(=O)(C1CC1)n1cc(-c2nccc(Nc3cc(N[C@H]4CC[C@@H](NCCF)CC4)c(-c4ccc(CO)cn4)cn3)n2)cn1 [Example 21, (6′-((2-(1-(Cyclopropylsulfonyl)-1H-pyrazol-4-yl)pyrimidin-4-yl)amino)-4′-(((1s,4s)-4-((2-fluoroethyl)amino)cyclohexyl)amino)-[2,3′-bipyridin]-5-yl)methanol] | 0.3 nM | 0.6 nM | 0.3 nM | 1.2 nM | 0.5 nM | 11.6 nM | 5570 nM | 6.3 nM | 0.3 nM | 1 nM |
| O=S(=O)(C1CC1)n1cc(-c2nccc(Nc3cc(N[C@H]4CC[C@@H](CO)CC4)c(-c4ccc(CO)cn4)cn3)n2)cn1 [Example 22, (6′-((2-(1-(Cyclopropylsulfonyl)-1H-pyrazol-4-yl)pyrimidin-4-yl)amino)-4′-(((1s,4s)-4-(hydroxymethyl)cyclohexyl)amino)-[2,3′-bipyridin]-5-yl)methanol] | 0.3 nM | 0.2 nM | 0.2 nM | 0.2 nM | 0.1 nM | 1.1 nM | 165 nM | 0.3 nM | 0.3 nM | 0.2 nM |
| CC(C)(O)[C@H]1CC[C@@H](Nc2cc(Nc3ccnc(-c4cnn(S(=O)(=O)C5CC5)c4)n3)ncc2-c2ccc(CO)cn2)CC1 [Example 24, 2-((1s,4s)-4-((6′-((2-(1-(Cyclopropylsulfonyl)-1H-pyrazol-4-yl)pyrimidin-4-yl)amino)-5-(hydroxymethyl)-[2,3′-bipyridin]-4′-yl)amino)cyclohexyl)propan-2-ol] | 8.4 nM | 0.9 nM |  | 2.2 nM | 1 nM | 3.5 nM | > 10000 nM | 2.8 nM | 1 nM | 0.7 nM |
| CC(C)(O)[C@H]1CC[C@@H](Nc2cc(Nc3ccnc(-c4cnn(S(=O)(=O)C5CC5)c4)n3)ncc2-c2ccc(CN3CCOCC3)cn2)CC1 [Example 25, 2-((1s,4s)-4-((6′-((2-(1-(Cyclopropylsulfonyl)-1H-pyrazol-4-yl)pyrimidin-4-yl)amino)-5-(morpholinomethyl)-[2,3′-bipyridin]-4′-yl)amino)cyclohexyl)propan-2-ol] | 1.1 nM | 1.2 nM | 0.8 nM | 0.5 nM | 0.5 nM | 2 nM | 1830 nM | 1.9 nM | 1 nM | 0.3 nM |
| CN(C)Cc1ccc(-c2cnc(Nc3ccnc(-c4cnn(S(=O)(=O)C5CC5)c4)n3)cc2N[C@H]2CC[C@@H](C(C)(C)O)CC2)nc1 [Example 26, 2-((1s,4s)-4-((6′-((2-(1-(Cyclopropylsulfonyl)-1H-pyrazol-4-yl)pyrimidin-4-yl)amino)-5-((dimethylamino)methyl)-[2,3′-bipyridin]-4′-yl)amino)cyclohexyl)propan-2-ol] | 0.4 nM | 0.4 nM | 0.2 nM | 0.2 nM | 0.2 nM | 0.7 nM | 107 nM | 0.9 nM | 0.4 nM | 0.1 nM |
| C[C@]1(O)CC[C@@H](Nc2cc(Nc3ccnc(-c4cnn(S(=O)(=O)C5CC5)c4)n3)ncc2-c2cccc(CN3CCOCC3)n2)CC1 [Example 29, (1s,4s)-4-((6′-((2-(1-(Cyclopropylsulfonyl)-1H-pyrazol-4-yl)pyrimidin-4-yl)amino)-6-(morpholinomethyl)-[2,3′-bipyridin]-4′-yl)amino)-1-methylcyclohexan-1-ol] | 0.2 nM | 0.4 nM |  | 1.8 nM |  | 26.2 nM | > 10000 nM |  |  |  |
| C[C@]1(O)CC[C@@H](Nc2cc(Nc3ccnc(-c4cnn(S(=O)(=O)C5CC5)c4)n3)ncc2-c2ccc(CN3CCOCC3)cn2)CC1 [Example 32, (1s,4s)-4-((6′-((2-(1-(Cyclopropylsulfonyl)-1H-pyrazol-4-yl)pyrimidin-4-yl)amino)-5-(morpholinomethyl)-[2,3′-bipyridin]-4′-yl)amino)-1-methylcyclohexan-1-ol] | 0.4 nM | 0.3 nM | 0.2 nM | 0.1 nM | 0.2 nM | 1.9 nM | 120 nM | 0.3 nM | 0.2 nM | 0.1 nM |

Continued, values first:

| IC50 (EGFR del19/T790M/C797S; [1]) | IC50 (EGFR L858R/T790M/C797S; [2]) | IC50 (EGFR L858R/T790M/C797S; [3]) | IC50 (EGFR del19/C797S; [4]) | IC50 (EGFR del19/C797S; [5]) | IC50 (EGFR L858R/C797S; [6]) | IC50 (EGFR wildtype; [7]) | IC50 (EGFR wildtype; [8]) | IC50 (EGFR del19/T790M/C797S; [9]) | IC50 (EGFR L858R/C797S; [10]) | SMILES |
| --- | --- | --- | --- | --- | --- | --- | --- | --- | --- | --- |
| 0.4 nM | 0.6 nM | 0.2 nM | 1 nM | 0.4 nM | 11.5 nM | 2690 nM | 3.6 nM |  |  | Cc1ccnc(-c2cnc(Nc3ccnc(-c4cnn(S(=O)(=O)C5CC5)c4)n3)cc2N[C@H]2CC[C@@](C)(O)CC2)c1 [Example 12, (1s,4s)-4-((6′-((2-(1-(Cyclopropylsulfonyl)-1H-pyrazol-4-yl)pyrimidin-4-yl)amino)-4-methyl-[2,3′-bipyridin]-4′-yl)amino)-1-methylcyclohexan-1-ol] |
| 0.7 nM | 3.1 nM |  | 8.7 nM |  | 113 nM | > 10000 nM |  |  |  | CC(=O)c1cccc(-c2cnc(Nc3ccnc(-c4cnn(S(=O)(=O)C5CC5)c4)n3)cc2N[C@H]2CC[C@@](C)(O)CC2)n1 [Example 18, 1-(6′-((2-(1-(Cyclopropylsulfonyl)-1H-pyrazol-4-yl)pyrimidin-4-yl)amino)-4′-(((1s,4s)-4-hydroxy-4-methylcyclohexyl)amino)-[2,3′-bipyridin]-6-yl)ethan-1-one] |
| 1.1 nM | 1 nM |  | 5 nM | 1.8 nM | 6.2 nM | > 10000 nM | 13.7 nM | 1.6 nM | 0.6 nM | CC(O)c1cccc(-c2cnc(Nc3ccnc(-c4cnn(S(=O)(=O)C5CC5)c4)n3)cc2NC2CCC(C)(O)CC2)n1 (centres unmarked) [Example 23, (1s,4s)-4-((6′-((2-(1-(Cyclopropylsulfonyl)-1H-pyrazol-4-yl)pyrimidin-4-yl)amino)-6-(1-hydroxyethyl)-[2,3′-bipyridin]-4′-yl)amino)-1-methylcyclohexan-1-ol] |
| 0.3 nM | 0.4 nM | 0.2 nM | 0.3 nM | 0.1 nM | 1.6 nM | 370 nM | 1.7 nM | 0.3 nM | 0.1 nM | C[C@]1(O)CC[C@@H](Nc2cc(Nc3ccnc(-c4cnn(S(=O)(=O)C5CC5)c4)n3)ncc2-c2cccc(CO)n2)CC1 [Example 27, (1s,4s)-4-((6′-((2-(1-(Cyclopropylsulfonyl)-1H-pyrazol-4-yl)pyrimidin-4-yl)amino)-6-(hydroxymethyl)-[2,3′-bipyridin]-4′-yl)amino)-1-methylcyclohexan-1-ol] |
| 0.1 nM | 0.1 nM |  | 0.6 nM |  | 1.6 nM | 1530 nM |  |  |  | CN1CCN(Cc2cccc(-c3cnc(Nc4ccnc(-c5cnn(S(=O)(=O)C6CC6)c5)n4)cc3N[C@H]3CC[C@@](C)(O)CC3)n2)CC1 [Example 28, (1s,4s)-4-((6′-((2-(1-(Cyclopropylsulfonyl)-1H-pyrazol-4-yl)pyrimidin-4-yl)amino)-6-((4-methylpiperazin-1-yl)methyl)-[2,3′-bipyridin]-4′-yl)amino)-1-methylcyclohexan-1-ol] |
| 0.1 nM | 0.1 nM |  | 0.4 nM |  | 2 nM | 2910 nM |  |  |  | CN(C)Cc1cccc(-c2cnc(Nc3ccnc(-c4cnn(S(=O)(=O)C5CC5)c4)n3)cc2N[C@H]2CC[C@@](C)(O)CC2)n1 [Example 30, (1s,4s)-4-((6′-((2-(1-(Cyclopropylsulfonyl)-1H-pyrazol-4-yl)pyrimidin-4-yl)amino)-6-((dimethylamino)methyl)-[2,3′-bipyridin]-4′-yl)amino)-1-methylcyclohexan-1-ol] |
| 0.2 nM | 0.1 nM | 0.1 nM | 0.1 nM | 0.1 nM | 0.8 nM | 52.6 nM | 0.3 nM | 0.2 nM | 0.1 nM | CN(C)Cc1ccc(-c2cnc(Nc3ccnc(-c4cnn(S(=O)(=O)C5CC5)c4)n3)cc2N[C@H]2CC[C@@](C)(O)CC2)nc1 [Example 31, (1s,4s)-4-((6′-((2-(1-(Cyclopropylsulfonyl)-1H-pyrazol-4-yl)pyrimidin-4-yl)amino)-5-((dimethylamino)methyl)-[2,3′-bipyridin]-4′-yl)amino)-1-methylcyclohexan-1-ol] |
